Organism: Rattus norvegicus
Test: DrugMatrix - Regimen: Daily Repeat
Type: toxicity, organism-based, Sprague-Dawley
Set-up: regimen Daily Repeat, gender Male, age 6-8 weeks
Conditions: in vivo, po, route oral GAVAGE, vehicle 100 % WATER; for URIC ACID / ALANINE AMINOTRANSFERASE / ALBUMIN / ALKALINE PHOSPHATASE / ASPARTATE AMINOTRANSFERASE / BLOOD UREA NITROGEN / CARBON DIOXIDE / CHLORIDE / CHOLESTEROL / CREATINE PHOSPHOKINASE / CREATININE / GLUCOSE / LACTATE DEHYDROGENASE / LIPASE / PHOSPHORUS / POTASSIUM / SODIUM / TOTAL BILIRUBIN / TOTAL PROTEIN: tissue Plasma; for ABSOLUTE BASOPHIL / ABSOLUTE EOSINOPHIL / ABSOLUTE LYMPHOCYTE / ABSOLUTE MONOCYTE / ABSOLUTE SEGMENTED NEUTROPHIL / BASOPHIL / EOSINOPHIL / ERYTHROCYTE COUNT / HEMATOCRIT / HEMOGLOBIN / LEUKOCYTE COUNT / LYMPHOCYTE / MEAN CORPUSCULAR HEMOGLOBIN / MEAN CORPUSCULAR HEMOGLOBIN CONCENTRATION / MONOCYTE / NEUTROPHIL / NUCLEATED RED BLOOD CELLS / PLATELET COUNT: tissue Blood
[1] = 50 mg/kg, 120 h, dose level Low, time 5 day
[2] = 1750 mg/kg, 72 h, dose level High, time 3 day
[3] = 1750 mg/kg, 120 h, dose level High, time 5 day

Structure (SMILES): C[C@H](CS)C(=O)N1CCC[C@H]1C(=O)O [CAPTOPRIL]
- URIC ACID (50 mg/kg, 72 h, dose level Low, time 3 day): 1.37 mg/dL
- ABSOLUTE BASOPHIL [1]: 0 CELLS/uL
- ABSOLUTE EOSINOPHIL [1]: 130 CELLS/uL
- ABSOLUTE LYMPHOCYTE [1]: 12459.67 CELLS/uL
- ABSOLUTE MONOCYTE [1]: 96.33 CELLS/uL
- ABSOLUTE SEGMENTED NEUTROPHIL [1]: 1180.67 CELLS/uL
- BASOPHIL [1]: 0%
- EOSINOPHIL [1]: 1%
- ERYTHROCYTE COUNT [1]: 5.51 x10E6/uL
- HEMATOCRIT [1]: 34.87%
- HEMOGLOBIN [1]: 14.1 G/DL
- LEUKOCYTE COUNT [1]: 13.87 x10E3/uL
- LYMPHOCYTE [1]: 90%
- MEAN CORPUSCULAR HEMOGLOBIN [1]: 25.63 pg
- MEAN CORPUSCULAR HEMOGLOBIN CONCENTRATION [1]: 40.43 G/DL
- MONOCYTE [1]: 0.67%
- NEUTROPHIL [1]: 8.33%
- NUCLEATED RED BLOOD CELLS [1]: 0.33 /100WBC
- PLATELET COUNT [1]: 1341.67 x10E3/uL
- ALANINE AMINOTRANSFERASE [1]: 46.33 u/L
- ALBUMIN [1]: 4.37 G/DL
- ALKALINE PHOSPHATASE [1]: 377.67 u/L
- ASPARTATE AMINOTRANSFERASE [1]: 83.33 u/L
- BLOOD UREA NITROGEN [1]: 16.67 mg/dL
- CARBON DIOXIDE [1]: 30.67 mmol/L
- CHLORIDE [1]: 100.33 MEQ/L
- CHOLESTEROL [1]: 79.67 mg/dL
- CREATINE PHOSPHOKINASE [1]: 326.33 u/L
- CREATININE [1]: 0.2 mg/dL
- GLUCOSE [1]: 140.67 mg/dL
- LACTATE DEHYDROGENASE [1]: 506 u/L
- LIPASE [1]: 12.67 u/L
- PHOSPHORUS [1]: 10.43 mg/dL
- POTASSIUM [1]: 6.71 MEQ/L
- SODIUM [1]: 141.93 MEQ/L
- TOTAL BILIRUBIN [1]: 0.2 mg/dL
- TOTAL PROTEIN [1]: 6.37 G/DL
- URIC ACID [1]: 1.4 mg/dL
- ABSOLUTE BASOPHIL [2]: 0 CELLS/uL
- ABSOLUTE EOSINOPHIL [2]: 0 CELLS/uL
- ABSOLUTE LYMPHOCYTE [2]: 14323.33 CELLS/uL
- ABSOLUTE MONOCYTE [2]: 220.67 CELLS/uL
- ABSOLUTE SEGMENTED NEUTROPHIL [2]: 1556 CELLS/uL
- BASOPHIL [2]: 0%
- EOSINOPHIL [2]: 0%
- ERYTHROCYTE COUNT [2]: 5.51 x10E6/uL
- HEMATOCRIT [2]: 34.3%
- HEMOGLOBIN [2]: 13.6 G/DL
- LEUKOCYTE COUNT [2]: 16.1 x10E3/uL
- LYMPHOCYTE [2]: 89%
- MEAN CORPUSCULAR HEMOGLOBIN [2]: 24.73 pg
- MEAN CORPUSCULAR HEMOGLOBIN CONCENTRATION [2]: 39.67 G/DL
- MONOCYTE [2]: 1.33%
- NEUTROPHIL [2]: 9.67%
- NUCLEATED RED BLOOD CELLS [2]: 0.67 /100WBC
- PLATELET COUNT [2]: 1393 x10E3/uL
- ALANINE AMINOTRANSFERASE [2]: 54.67 u/L
- ALBUMIN [2]: 4.07 G/DL
- ALKALINE PHOSPHATASE [2]: 365.33 u/L
- ASPARTATE AMINOTRANSFERASE [2]: 87 u/L
- BLOOD UREA NITROGEN [2]: 25.67 mg/dL
- CARBON DIOXIDE [2]: 24 mmol/L
- CHLORIDE [2]: 100.67 MEQ/L
- CHOLESTEROL [2]: 71.67 mg/dL
- CREATINE PHOSPHOKINASE [2]: 349.33 u/L
- CREATININE [2]: 0.16 mg/dL
- GLUCOSE [2]: 152.33 mg/dL
- LACTATE DEHYDROGENASE [2]: 356 u/L
- LIPASE [2]: 10.33 u/L
- PHOSPHORUS [2]: 11.53 mg/dL
- SODIUM [2]: 139.9 MEQ/L
- TOTAL BILIRUBIN [2]: 0.2 mg/dL
- TOTAL PROTEIN [2]: 5.73 G/DL
- URIC ACID [2]: 1.27 mg/dL
- ABSOLUTE BASOPHIL [3]: 0 CELLS/uL
- ABSOLUTE EOSINOPHIL [3]: 0 CELLS/uL
- ABSOLUTE LYMPHOCYTE [3]: 12668 CELLS/uL
- ABSOLUTE MONOCYTE [3]: 119.33 CELLS/uL
- ABSOLUTE SEGMENTED NEUTROPHIL [3]: 946 CELLS/uL
- BASOPHIL [3]: 0%
- EOSINOPHIL [3]: 0%
- ERYTHROCYTE COUNT [3]: 5.54 x10E6/uL
- HEMATOCRIT [3]: 34.7%
- HEMOGLOBIN [3]: 13.83 G/DL
- LEUKOCYTE COUNT [3]: 13.73 x10E3/uL
- LYMPHOCYTE [3]: 92.33%
- MEAN CORPUSCULAR HEMOGLOBIN [3]: 25.03 pg
- MEAN CORPUSCULAR HEMOGLOBIN CONCENTRATION [3]: 39.9 G/DL
- MONOCYTE [3]: 1%
- NEUTROPHIL [3]: 6.67%
- NUCLEATED RED BLOOD CELLS [3]: 0 /100WBC
- PLATELET COUNT [3]: 1353.67 x10E3/uL
- ALANINE AMINOTRANSFERASE [3]: 53.67 u/L
- ALBUMIN [3]: 4.13 G/DL
- ALKALINE PHOSPHATASE [3]: 415 u/L
- ASPARTATE AMINOTRANSFERASE [3]: 102 u/L
- BLOOD UREA NITROGEN [3]: 39.33 mg/dL
- CARBON DIOXIDE [3]: 24.33 mmol/L
- CHLORIDE [3]: 102.33 MEQ/L
- CHOLESTEROL [3]: 70.33 mg/dL
- CREATINE PHOSPHOKINASE [3]: 594.67 u/L
- CREATININE [3]: 0.33 mg/dL
- GLUCOSE [3]: 145.33 mg/dL
- LACTATE DEHYDROGENASE [3]: 1114.33 u/L
- LIPASE [3]: 11 u/L
- PHOSPHORUS [3]: 10.47 mg/dL
- POTASSIUM [3]: 6.84 MEQ/L
- SODIUM [3]: 141.27 MEQ/L
- TOTAL BILIRUBIN [3]: 0.23 mg/dL
- TOTAL PROTEIN [3]: 6.03 G/DL
- URIC ACID [3]: 1.87 mg/dL

Source: ChEMBL document CHEMBL3885881, “DrugMatrix”
